This is an account of results in patent US20050004084A1, “Aspirin-containing trasdermal pharmaceutical composition for the treatment of calcification” (priority 2001, published 2005).

Series [1] can be described thus: Urine analyses on rabbits kept on specific calcium-rich diet. The class given is in vivo. As to the method:
From the data of Table 2 it appears that the amount of acetylsalicylic acid present in the blood of the animals stabilized after a short induction period. […] This test was performed on healthy animals, where no dissolution of calcification and no formation of calcium acetylsalicylate due to the dissolution took place.

Series [2] in a line: Examination of the metabolism of acetylsalicylic acid: ASA and SA in plasma by HPLC after gel applied onto skin. The class given is in vivo, New Zealand giant white rabbits. The following applies: for concentration at 0 h / concentration at 0.25 h / concentration at 0.5 h / concentration at 0.75 h / concentration at 0.75 hour / concentration at 1 h / concentration at 1.5 h / concentration at 2 h / concentration at 3 h / concentration at 4 h: pH 6.5, Salicylic acid and acetysalicylic acid contents of blood samples. As to the method:
The tests were performed on 6 week old male New Zealand giant white rabbits. […] The hair was shaved off from the backs of the rabbits, and 0.6 g of a gel with the following composition was applied onto the skin:
Blood samples were taken periodically as indicated in Table 1 from the jugular veins of the animals, the samples were centrifuged to separate the plasma, and the acetylsalicylic acid (ASA) and salicylic acid (SA) contents of the samples were measured by HPLC. The centrifuged plasma was stored at −22° C. until the time of analysis in order to avoid any ex vivo metabolism due to the presence of esterases in the plasma.
The above test was repeated on the same animals with the difference that 0.01 g of sodium carbonate was also added to the gel and the gel was buffered to pH 6.5.

Where [3] appears, read: male, New Zealand giant white, rabbit, in vivo.
The mark [4] stands for this setting: male, New Zealand giant white, rabbit, in vivo, 0 h, pH 6.5.
Where [5] appears, read: male, New Zealand giant white, rabbit, in vivo, 0.75 h, pH 6.5.
Setting [6] is: male, New Zealand giant white, rabbit, in vivo, 0.75 hour, pH 6.5.
[7] abbreviates: male, New Zealand giant white, rabbit, in vivo, Salicylic acid and acetysalicylic acid contents of blood samples.

A value given as a limit tells only on which side of the number the result lay.

For calcium acetylsalicylate, the “excretion / further metabolism” value in series [1] is on record as “can no longer be metabolized but is excreted from the organism in unchanged form”.
In the case of `CC(=O)Oc1ccccc1C(=O)O` [ASA, acetylsalicylic acid], in series [2] (setting [3]), the “time within which acetylsalicylic acid metabolizes in the body to salicylic acid and acetic acid” value is no more than 15 min; the concentration at 0 h turned out to be 0 ng/mL; the concentration at 0.25 h was 570 ng/mL; the concentration at 0.5 h was determined as 5240 ng/mL. Besides, in series [2] (setting [3]), the concentration at 0.75 h came out at 9440 ng/mL, the concentration at 0.75 hour is 7900 ng/mL, the concentration at 1 h came to 7700 ng/mL and the concentration at 1.5 h was 7120 ng/mL. Moreover, in series [2] (setting [3]), the concentration at 2 h was determined as 6980 ng/mL, the concentration at 3 h came to 5650 ng/mL and the concentration at 4 h was 4550 ng/mL. Moreover, the “Salicylic acid and acetysalicylic acid contents of blood samples” value in series [2] (setting [4]) is recorded as 0 μg/ml of plasma. The “Salicylic acid and acetysalicylic acid contents of blood samples” value in series [2] (male, New Zealand giant white, rabbit, in vivo, 0 hours) is recorded as 0 μg/ml of plasma. In addition, in series [2] (setting [5]), the “Salicylic acid and acetysalicylic acid contents of blood samples” value is recorded as 9.68 μg/ml of plasma. The “Salicylic acid and acetysalicylic acid contents of blood samples” value in series [2] (setting [6]) is given as 8.84 μg/ml of plasma. Moreover, the “Salicylic acid and acetysalicylic acid contents of blood samples” value in series [2] (male, New Zealand giant white, rabbit, in vivo, 1.75 hours) is given as 0.136 μg/ml of plasma. Besides, in series [2] (male, New Zealand giant white, rabbit, in vivo, 4 h, pH 6.5), the “acetylsalicylic acid remained un-metabolized” value was found to be 25%. Moreover, in series [2] (setting [7]), the concentration at 0 hours stood at 0 ng/mL, the concentration at 0.75 hours was found to be 115 ng/mL, the concentration at 1 hours was found to be 98 ng/mL and the concentration at 1.75 hours was 76 ng/mL. Besides, the concentration at 2 hours in series [2] (setting [7]) was 163 ng/mL. For the same molecule, in series [2] (rabbit, in vivo), the “Salicylic acid and acetysalicylic acid contents of blood samples” value is “BLD”. For the same molecule, in series [2] (rabbit, in vivo, pH 6.5), the “metabolism of acetylsalicylic acid (observation)” value is listed as “extreme slow down in the metabolism” and the “start of metabolism of acetylsalicylic acid” value is recorded as “third-fourth hour”.
Turning to `O=C(O)c1ccccc1O` [SA, salicylic acid], the “Salicylic acid and acetysalicylic acid contents of blood samples” value in series [2] (Rabbit 1, 0 hours, 0.6 g gel without carbonate on skin) is “BLD”. Besides, the “Salicylic acid and acetysalicylic acid contents of blood samples” value in series [2] (Rabbit 2, 0 hours, 0.6 g gel without carbonate on skin) is reported as “BLD”. Further, the “Salicylic acid and acetysalicylic acid contents of blood samples” value in series [2] (Rabbit 3, 0 hours, 0.6 g gel without carbonate on skin) is given as “BLD”. Also, in series [2] (Rabbit 4, 0 hours, 0.6 g gel without carbonate on skin), the “Salicylic acid and acetysalicylic acid contents of blood samples” value is “BLD”. For the same molecule, in series [2] (gel without carbonate, Table 1), the “salicylic acid content of the blood samples relative to the acetylsalicylic acid content” value is on record as “at least one hundredfold”. Moreover, the “Salicylic acid and acetysalicylic acid contents of blood samples” value in series [2] (setting [4]) is on record as 0 μg/ml of plasma. The “Salicylic acid and acetysalicylic acid contents of blood samples” value in series [2] (setting [5]) is on record as 2.54 μg/ml of plasma. Besides, in series [2] (setting [6]), the “Salicylic acid and acetysalicylic acid contents of blood samples” value is listed as 1.97 μg/ml of plasma. In series [2] (setting [7]), the concentration at 0.75 hours worked out at 40800 ng/mL. In series [2] (setting [3]), the concentration at 0 h was found to be 0 ng/mL, the concentration at 0.25 h was 900 ng/mL, the concentration at 0.5 h was found to be 980 ng/mL and the concentration at 0.75 h was 2810 ng/mL. Further, in series [2] (setting [3]), the concentration at 0.75 hour worked out at 2100 ng/mL, the concentration at 1 h was 3020 ng/mL, the concentration at 1.5 h was 2690 ng/mL and the concentration at 2 h was found to be 3110 ng/mL. In series [2] (setting [3]), this molecule came in with a concentration at 3 h of 7980 ng/mL and a concentration at 4 h of 12200 ng/mL.
